Results published in ChEMBL document CHEMBL1156351, “A new isoquinoline alkaloid from the marine sponge Haliclona species” (J Nat Prod, 2001).
In brackets after ≈: the same amount, converted by molar mass. Activity calls are given as the source filed them. No cut-off for these calls is given here.

What was measured:
Type in all cases: functional, cell-based
OVCAR-3 [1] = assay: Cytotoxicity against human OVCAR-3 cells at 50 ug/mL after 2 days by XTT assay
LOX = assay: Cytotoxicity against human LOX cells at 50 ug/mL after 2 days by XTT assay
OVCAR-3 [2] = assay: Cytotoxicity against human OVCAR-3 cells after 2 days by XTT assay; settings: OVCAR-3, 48 h
[3] = Cytotoxicity against human LOX cells after 2 days by XTT assay; settings: 48 h

Row | Compound | Activity (OVCAR-3 [1]) | Activity (LOX) | IC50 (OVCAR-3 [2]) [µg/mL] | IC50 [3] [µg/mL]
1 | COc1cc2c(CO)nccc2cc1O | inactive | inactive |  | 
2 | COC1=C(C)C(=O)c2cc(=O)n(C)c(C)c2C1=O [MIMOSAMYCIN] |  |  | 10 (≈ 40.4 µM) | 10 (≈ 40.4 µM)
